One data set deals with patients with CD. As to conditions: cited from earlier work.
The next data set has as its target T1, lymphotoxin (TNF-β) (Homo sapiens, UniProt P01374).
T1 sequence (P01374 35-205): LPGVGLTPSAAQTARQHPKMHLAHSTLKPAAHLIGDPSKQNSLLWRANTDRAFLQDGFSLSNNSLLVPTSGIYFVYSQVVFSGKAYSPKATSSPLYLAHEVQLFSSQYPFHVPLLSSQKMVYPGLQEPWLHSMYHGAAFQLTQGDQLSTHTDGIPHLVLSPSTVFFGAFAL
The settings on record: cited from earlier work.

A further data set addresses T2, α4β7 receptor (Homo sapiens, UniProt P13612+P26010).
T2 construct: endogenous in cells; host or cells: lymphocytes of patients with CD or UC (in vivo)
Briefly: pharmacodynamics (α4β7 receptor saturation) after multiple-dose administration. Format: in vivo. As to conditions: following the initial dose. How it is done:
(§1) In previous studies, single-dose pharmacokinetics, pharmacodynamics (α4β7 receptor saturation), safety, and tolerability of vedolizumab were investigated over a dose range of 0.2 to 10 mg/kg in healthy volunteers (intravenous [IV] infusion) (unpublished data). After reaching peak concentrations, vedolizumab serum concentrations fell in a generally biexponential fashion until concentrations reached approximately 1 to 10 ng/mL. Thereafter, concentrations appeared to fall in a nonlinear fashion. The multiple-dose pharmacokinetics and pharmacodynamics of vedolizumab have been investigated following IV infusions of 0.5 and 2 mg/kg in patients with CD and infusion of 2, 6, and 10 mg/kg in patients with UC.

Data set [1] is described as follows: multiple-dose pharmacokinetics of vedolizumab, IV infusion, patients with UC. Format: in vivo, human. As to conditions: dose range 2 to 10 mg/kg. How it is done: as §1

Turning to Adalimumab, in the data set with patients with CD (40 mg weekly or every other week, patients with CD who responded to adalimumab induction therapy), the maintaining clinical remission result is “effective”. For the same substance, the corticosteroid-sparing effects result in the data set with patients with CD (patients with CD) is listed as “corticosteroid-sparing effects”. In addition, the “binding or inactivation of lymphotoxin (TNF-β)” value at lymphotoxin (TNF-β) was “does not bind or inactivate”.
Consider “vedolizumab: humanized antibody (Ig) G1 mAb directed against the human lymphocyte integrin α4β7; CAS 943609-66-3”, for which the α4β7 receptor saturation result in the data set with α4β7 receptor was “rapid and near complete”. Further, the pharmacokinetics dose linearity entry in data set [1] is “generally linear”.
